Key:
[1] = target: hemolysin alpha from Staphylococcus aureus (Staphylococcus aureus, UniProt P09616); experiment: cell-based
[2] = target: S. aureus Alpha hemolysin (Staphylococcus aureus, UniProt P09616); experiment: cell-based; details: A549-LDH Assay activity
Sequence of S. aureus Alpha hemolysin (P09616 27-319 limits assumed): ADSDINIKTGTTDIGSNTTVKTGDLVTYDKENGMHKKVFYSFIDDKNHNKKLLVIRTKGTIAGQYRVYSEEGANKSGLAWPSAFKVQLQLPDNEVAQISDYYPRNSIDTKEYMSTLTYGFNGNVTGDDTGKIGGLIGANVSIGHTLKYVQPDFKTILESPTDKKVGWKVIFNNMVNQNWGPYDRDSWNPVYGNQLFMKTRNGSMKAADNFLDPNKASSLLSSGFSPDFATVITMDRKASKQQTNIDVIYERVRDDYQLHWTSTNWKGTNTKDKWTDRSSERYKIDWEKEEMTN

Sequence of hemolysin alpha from Staphylococcus aureus (P09616 27-319 limits assumed): as above

SMILES	IC50 [1] [nM]	EC50 [2] [nM]	EC50 [1] [nM]
O=c1[nH]c2cc(F)c(S(=O)(=O)Nc3ccc(-c4ccc(F)cc4)c(Cl)c3)cc2[nH]c1=O [Compound 18, N-(2-chloro-4′-fluoro-[1,1′-biphenyl]-4-yl)-7-fluoro-2,3-dioxo-1,2,3,4-tetrahydroquinoxaline-6-sulfonamide]	< 30	30 to 100	
C#Cc1cc(NS(=O)(=O)c2cc3[nH]c(=O)c(=O)[nH]c3cc2C)ccc1-c1ccc(OC)c(F)c1 [Compound 300, N-[3-ethynyl-4-(3-fluoro-4-methoxy-phenyl)phenyl]-7-methyl-2,3-dioxo-1,4-dihydroquinoxaline-6-sulfonamide]		< 30	< 30
Cc1cc2[nH]c(=O)c(=O)[nH]c2cc1S(=O)(=O)Nc1ccc(OC(F)(F)F)c(Cl)c1 [Compound 324, N-[3-chloro-4-(trifluoromethoxy)phenyl]-7-methyl-2,3-dioxo-1,4-dihydroquinoxaline-6-sulfonamide]		30 to 100	30 to 100
Cc1cc2[nH]c(=O)c(=O)[nH]c2cc1S(=O)(=O)Nc1ccc(-c2ccccc2Cl)cc1 [Compound 108, N-(2′-chloro-[1,1′-biphenyl]-4-yl)-7-methyl-2,3-dioxo-1,2,3,4-tetrahydroquinoxaline-6-sulfonamide]	100 to 1000	100 to 1000	
Cc1cc2[nH]c(=O)c(=O)[nH]c2cc1S(=O)(=O)Nc1ccc(-c2cccc(O)c2)c(Cl)c1 [Compound 386, N-[3-chloro-4-(3-hydroxyphenyl)phenyl]-7-methyl-2,3-dioxo-1,4-dihydroquinoxaline-6-sulfonamide]		< 30	< 30
Cc1cc2[nH]c(=O)c(=O)[nH]c2cc1S(=O)(=O)Nc1ccc(-c2cc[nH]c(=O)c2)c(Cl)c1 [Compound 280, N-[3-chloro-4-(2-oxo-1H-pyridin-4-yl)phenyl]-7-methyl-2,3-dioxo-1,4-dihydroquinoxaline-6-sulfonamide]		100 to 1000	1000 to 3500
[2H]C([2H])([2H])c1cc2[nH]c(=O)c(=O)[nH]c2cc1S(=O)(=O)Nc1ccc(OC(F)(F)F)cc1 [Compound 217, 7-(methyl-d3)-2,3-dioxo-N-(4-(trifluoromethoxy)phenyl)-1,2,3,4-tetrahydroquinoxaline-6-sulfonamide]		< 30	< 30
Cc1cc2[nH]c(=O)c(=O)[nH]c2cc1S(=O)(=O)Nc1cnc(-c2cncc(Cl)c2)c(Cl)c1 [Compound 279, N-[5-chloro-6-(5-chloro-3-pyridyl)-3-pyridyl]-7-methyl-2,3-dioxo-1,4-dihydroquinoxaline-6-sulfonamide]		100 to 1000	100 to 1000
Cc1cc2[nH]c(=O)c(=O)[nH]c2cc1S(=O)(=O)Nc1ccc(Cl)cc1 [Compound 177, N-(4-chlorophenyl)-7-methyl-2,3-dioxo-1,2,3,4-tetrahydroquinoxaline-6-sulfonamide]	100 to 1000	100 to 1000	
Cc1cc2[nH]c(=O)c(=O)[nH]c2cc1S(=O)(=O)Nc1ccc(-c2ccc(C(N)=O)cc2)c(Cl)c1 [Compound 314, 4-[2-chloro-4-[(7-methyl-2,3-dioxo-1,4-dihydroquinoxalin-6-yl)sulfonylamino]phenyl]benzamide]		100 to 1000	100 to 1000
Cc1cc2[nH]c(=O)c(=O)[nH]c2cc1S(=O)(=O)Nc1ccc(-c2ccc(S(C)(=O)=O)cc2)c(Cl)c1 [Compound 398, N-[3-chloro-4-(4-methylsulfonylphenyl)phenyl]-7-methyl-2,3-dioxo-1,4-dihydroquinoxaline-6-sulfonamide]		1000 to 6000	1000 to 3500
O=c1[nH]c2cc(F)c(S(=O)(=O)Nc3ccc(-c4ccccc4F)c(Cl)c3)cc2[nH]c1=O [Compound 36, N-(2-chloro-2′-fluoro-[1,1′-biphenyl]-4-yl)-7-fluoro-2,3-dioxo-1,2,3,4-tetrahydroquinoxaline-6-sulfonamide]	< 30	100 to 1000	
